# Tests used:
# ORYSAT (Rice, Tebonnet) [1] = assay: Postemergence herbicidal evaluation; assay type: in vivo, Oryza sativa, (L.) Tebonnet; conditions: postemergence
# Procedure, shortened: (§1)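 Young plants, roughly two weeks from seeding, receive the active ingredient as a sprayed dispersion (acetone/water 50/50, 0.5% TWEEN 20) at 40 psi. Doses span about 0.0156 to 0.500 kg/ha. A visual score from 0 to 9 compares treated with control plants four to five weeks on.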
# CYPIR (Rice Flatsedge) = assay: Preemergence weed control under flooded paddy conditions; assay type: in vivo, Cyperus iria; conditions: rated 3-4 weeks after treatment
# Procedure, shortened: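 First, seeds or propagules go into the top 0.5 cm of silt loam; next, water is held 1.5 to 3 cm over the soil; then compound (50/50 acetone/water) is pipetted into it at about 0.0313 to 0.500 kg/ha; finally plants are rated visually 0-9 after three to four weeks.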
# [2] = test system: GLXMAW (Soybean, Williams); assay: Preemergence herbicidal evaluation; assay type: in vivo, Glycine max, (L.) Merr. cv Williams; conditions: rated 4-5 weeks after treatment
# Procedure, shortened: (§2)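 Each species is sown separately in potting soil over roughly an inch of soil before any emergence. The soil surface then receives an aqueous acetone spray delivering about 0.0156 to 0.500 kg/ha of compound. After four to five weeks, injury is scored from 0 to 9 relative to a control.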
# CASOB (Sicklepod) = assay: Postemergence herbicidal evaluation; assay type: in vivo, Cassia obtusifolia; conditions: postemergence
# Procedure, shortened: as §1
# [3] = test system: TRZAWR (Wheat, Winter, cv Riband); assay: Preemergence herbicidal evaluation; assay type: in vivo, Triticum aestivum; conditions: rated 4-5 weeks after treatment
# Procedure, shortened: as §2
# GALAP (Galium) = assay: Preemergence herbicidal evaluation; assay type: in vivo, Galium aparine; conditions: rated 4-5 weeks after treatment
# Procedure, shortened: as §2
# ECHCG (Barnyardgrass) = assay: Postemergence herbicidal evaluation; assay type: in vivo, Echinochloa crus-galli; conditions: postemergence
# Procedure, shortened: as §1
# [4] = test system: CHEAL (Lambsquarters, Common); assay: Postemergence herbicidal evaluation; assay type: in vivo, Chenopodium album; conditions: postemergence
# Procedure, shortened: as §1
# ZEAMX (Corn, Field) = assay: Preemergence herbicidal evaluation; assay type: in vivo, Zea mays; conditions: rated 4-5 weeks after treatment
# Procedure, shortened: as §2
# MOOVA (Monochoria) = assay: Preemergence weed control under flooded paddy conditions; assay type: in vivo, Monochoria vaginalis; conditions: rated 3-4 weeks after treatment
# Procedure, shortened: (§3)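 Herbicidal effect is scored visually on a 0-9 scale against an untreated control, three to four weeks after compounds are pipetted into the flood water (1.5 to 3 cm deep) over seeds planted in silt loam at 0.5 cm depth. Rates: about 0.0313 to 0.500 kg/ha.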
# [5] = test system: SAGPY (Arrowhead (Pygmaea)); assay: as above; assay type: in vivo, Sagittaria pygmaea; conditions: rated 3-4 weeks after treatment
# Procedure, shortened: as §3
# SETVI (Foxtail, Green) = assay: Preemergence herbicidal evaluation; assay type: in vivo, Setaria viridis; conditions: rated 4-5 weeks after treatment
# Procedure, shortened: as §2
# ORYSAT (Rice, Tebonnet) [6] = assay: Preemergence herbicidal evaluation; assay type: in vivo, Oryza sativa, (L.) Tebonnet; conditions: rated 4-5 weeks after treatment
# Procedure, shortened: as §2
compound,measurement,setting,value
"Cc1ccccc1CN1C(=O)CSC1=Nc1cc(-n2c(=O)cc(C(F)(F)F)n(C)c2=O)c(F)cc1Cl [Compound 129, 3-{4-Chloro-2-fluoro-5-{[3-(o-methylbenzyl)-4-oxo-2-thiazolidinylidene]amino}phenyl}-1-methyl-6-(trifluoromethyl)-2,4 (1H,3H)-pyrimidinedione]",Herbicidal rating ORYSAT,"ORYSAT (Rice, Tebonnet) [1]; rate 0.0156 kg/ha",2.5
same,Herbicidal rating ORYSAT,"ORYSAT (Rice, Tebonnet) [1]; rate 0.0313 kg/ha",3.5
same,Herbicidal rating ORYSAT,"ORYSAT (Rice, Tebonnet) [1]; rate 0.0625 kg/ha",3.0
same,"herbicidal effect rating, CYPIR",CYPIR (Rice Flatsedge); 0.0313 kg/ha,4.0
same,"herbicidal effect rating, CYPIR",CYPIR (Rice Flatsedge); 0.0625 kg/ha,5.0
same,"herbicidal effect rating, CYPIR",CYPIR (Rice Flatsedge); 0.1250 kg/ha,7.0
same,"herbicidal effect rating, CYPIR",CYPIR (Rice Flatsedge); 0.2500 kg/ha,9.0
same,Preemergence herbicidal rating GLXMAW,[2]; rate 0.0156 kg/ha,0.0
same,Preemergence herbicidal rating GLXMAW,[2]; rate 0.0313 kg/ha,0.0
same,Preemergence herbicidal rating GLXMAW,[2]; rate 0.0625 kg/ha,2.0
same,Preemergence herbicidal rating GLXMAW,[2]; rate 0.1250 kg/ha,2.0
same,Preemergence herbicidal rating GLXMAW,[2]; rate 0.2500 kg/ha,4.0
same,Herbicidal rating CASOB,CASOB (Sicklepod); rate 0.0156 kg/ha,3.0
same,Herbicidal rating CASOB,CASOB (Sicklepod); rate 0.0313 kg/ha,4.0
same,Herbicidal rating CASOB,CASOB (Sicklepod); rate 0.0625 kg/ha,4.0
same,Preemergence herbicidal rating TRZAWR,[3]; rate 0.0156 kg/ha,0.0
same,Preemergence herbicidal rating TRZAWR,[3]; rate 0.0313 kg/ha,0.0
same,Preemergence herbicidal rating TRZAWR,[3]; rate 0.0625 kg/ha,0.0
same,Preemergence herbicidal rating TRZAWR,[3]; rate 0.1250 kg/ha,1.0
same,Preemergence herbicidal rating TRZAWR,[3]; rate 0.2500 kg/ha,1.0
same,Preemergence herbicidal rating GALAP,GALAP (Galium); rate 0.0156 kg/ha,1.0
same,Preemergence herbicidal rating GALAP,GALAP (Galium); rate 0.0313 kg/ha,1.0
same,Preemergence herbicidal rating GALAP,GALAP (Galium); rate 0.0625 kg/ha,1.0
same,Preemergence herbicidal rating GALAP,GALAP (Galium); rate 0.1250 kg/ha,0.0
same,Preemergence herbicidal rating GALAP,GALAP (Galium); rate 0.2500 kg/ha,0.0
same,Herbicidal rating ECHCG,ECHCG (Barnyardgrass); rate 0.0156 kg/ha,1.0
same,Herbicidal rating ECHCG,ECHCG (Barnyardgrass); rate 0.0313 kg/ha,2.0
same,Herbicidal rating ECHCG,ECHCG (Barnyardgrass); rate 0.0625 kg/ha,3.0
same,Herbicidal rating CHEAL,[4]; rate 0.0156 kg/ha,5.0
same,Herbicidal rating CHEAL,[4]; rate 0.0313 kg/ha,9.0
same,Herbicidal rating CHEAL,[4]; rate 0.0625 kg/ha,9.0
same,Preemergence herbicidal rating ZEAMX,"ZEAMX (Corn, Field); rate 0.0156 kg/ha",0.0
same,Preemergence herbicidal rating ZEAMX,"ZEAMX (Corn, Field); rate 0.0313 kg/ha",0.0
same,Preemergence herbicidal rating ZEAMX,"ZEAMX (Corn, Field); rate 0.0625 kg/ha",0.0
same,Preemergence herbicidal rating ZEAMX,"ZEAMX (Corn, Field); rate 0.1250 kg/ha",1.0
same,Preemergence herbicidal rating ZEAMX,"ZEAMX (Corn, Field); rate 0.2500 kg/ha",1.0
same,"herbicidal effect rating, MOOVA",MOOVA (Monochoria); 0.0313 kg/ha,6.0
same,"herbicidal effect rating, MOOVA",MOOVA (Monochoria); 0.0625 kg/ha,7.0
same,"herbicidal effect rating, MOOVA",MOOVA (Monochoria); 0.1250 kg/ha,9.0
same,"herbicidal effect rating, MOOVA",MOOVA (Monochoria); 0.2500 kg/ha,9.0
same,"herbicidal effect rating, SAGPY",[5]; 0.0313 kg/ha,0.0
same,"herbicidal effect rating, SAGPY",[5]; 0.0625 kg/ha,0.0
same,"herbicidal effect rating, SAGPY",[5]; 0.1250 kg/ha,2.0
same,"herbicidal effect rating, SAGPY",[5]; 0.2500 kg/ha,7.0
same,Preemergence herbicidal rating SETVI,"SETVI (Foxtail, Green); rate 0.0156 kg/ha",1.0
same,Preemergence herbicidal rating SETVI,"SETVI (Foxtail, Green); rate 0.0313 kg/ha",1.0
same,Preemergence herbicidal rating SETVI,"SETVI (Foxtail, Green); rate 0.0625 kg/ha",1.0
same,Preemergence herbicidal rating SETVI,"SETVI (Foxtail, Green); rate 0.1250 kg/ha",6.0
same,Preemergence herbicidal rating SETVI,"SETVI (Foxtail, Green); rate 0.2500 kg/ha",7.0
same,Preemergence herbicidal rating ORYSAT,"ORYSAT (Rice, Tebonnet) [6]; rate 0.0156 kg/ha",0.0
same,Preemergence herbicidal rating ORYSAT,"ORYSAT (Rice, Tebonnet) [6]; rate 0.0313 kg/ha",0.0
same,Preemergence herbicidal rating ORYSAT,"ORYSAT (Rice, Tebonnet) [6]; rate 0.0625 kg/ha",1.0
same,Preemergence herbicidal rating ORYSAT,"ORYSAT (Rice, Tebonnet) [6]; rate 0.1250 kg/ha",1.0
same,Preemergence herbicidal rating ORYSAT,"ORYSAT (Rice, Tebonnet) [6]; rate 0.2500 kg/ha",3.0

# Source: US20020137929A1, “1 - (3-heterocyclylphenyl) isothiourea, -isourea, -guanidine and -amidine herbicidal agents” (Intellectual Property Department, BASF Aktiengesellschaft, priority 1998, published 2002)
